# US7344829B2, “Methods for detecting the efficacy of anticancer treatments” (Board of Regents, the University of Texas System, priority 2000, dated 2008)
# pIC50: −log10 of the molar value. Marks after values point to notes of the source that are not given here.
# How the values were obtained:
# [1] = test system: L3.6pl cells; assay: In vitro cytotoxicity assay (MTT); format: cell-based; details: Homo sapiens, 144 h, 6 days
# Method: In Vitro Cytotoxicity Assay. In all assays, 700–1000 tumor cells were seeded into 38-mm^2 wells of flat-bottomed 96-well plates in quadruplicate and allowed to adhere overnight. The cultures were then washed and refed with medium (negative control) or medium containing PKI166 with or without gemcitabine. […] Following a 2–4 h incubation in medium containing 0.42 mg/ml of MTT, the cells were lysed in DMSO. The conversion of MTT to formazan by metabolically viable cells was monitored by an MR-5000 96-well microtiter plate reader at 570 nm (Dynatech, Inc., Chantilly, Va.). Growth inhibition was calculated from the formula: Cytostasis (%)=[1−(A/B)]×100, where A is the absorbance of treated cells and B is the absorbance of the control cells.
# [2] = test system: VEGF; assay: In vitro expression of VEGF by L3.6pl cells (ELISA); format: cell-based, human; details: 72 h, 1 μM PKI166 or 10 nM gemcitabine, control 1400 pg/ml
# Method: (§1) In vitro Expression of VEGF and IL-8. L3.6pl cells (2000 cells/38 mm^2 well) were plated into 96-well plates in 200 μl supplemented DMEM containing 5% FBS for 24 h, and then treated with 0.05, 0.5, or 1 μM PKI166. Supplemented DMEM (5% FBS) and human IgG (10 μg/ml) served as controls. Seventy-two hours later, the culture supernatants were collected, and the level of VEGF and IL-8 proteins (corrected for cell number) were determined by Quantikine ELISA kits.
# [3] = test system: L3.6pl human pancreatic cancer cells; assay: Preliminary gemcitabine dose-response experiment in nude mice with pancreatic tumors; format: in vivo; details: gemcitabine 250 mg/kg and 500 mg/kg compared to 125 mg/kg (data not shown)
# Method: To evaluate the therapeutic effect of gemcitabine in this animal model, a preliminary dose-response experiment was performed. […] All mice were killed on day 35. The volume of tumors and incidence of metastasis were determined.
# [4] = test system: IL-8; assay: In vitro expression of IL-8 by L3.6pl cells (ELISA); format: cell-based, human; details: 72 h, 1 μM PKI166 or 10 nM gemcitabine, control 1440 pg/ml
# Method: as §1
# [5] = test system: L3.6pl human pancreatic cancer cells; assay: Immunohistochemical analysis of human pancreatic carcinoma in the pancreas of treated nude mice; format: in vivo; details: for PCNA+ tumor cells / TUNEL+ tumor cells: mean ± SD, 10 random 0.159-mm^2 fields at ×100; for CD (CD31, tumor MVD per field): staining with antibodies against CD31
# Excerpt: Immunohistochemical (IHC) Determination of VEGF, IL-8, PCNA, CD31/PECAM-1, and EGF-R. Paraffin-embedded tissues were used for identification of VEGF, IL-8, EGF-R, and proliferating cell nuclear antigen (PCNA). Sections (4–6 μm thick) were mounted on positively-charged Superfrost slides (Fisher Scientific, Co., Houston, Tex.) and dried overnight. Sections were deparaffinized in xylene followed by treatment with a graded series of alcohol (100%, 95%, 80% ethanol/ddH2O [v/v]) and rehydrated in PBS, pH 7.5. Sections analyzed for PCNA were microwaved 5 min for “antigen retrieval” (Shi et al. 1991). All other paraffin-embedded tissues were treated with pepsin (Biomeda) for 15 min at 37° C. and washed with PBS. Frozen tissues used for identification of CD31/PECAM-1, and activated EGF-R were sectioned (8–10 μm), mounted on positively charged Plus slides (Fisher Scientific), and air-dried for 30 min. Frozen sections were fixed in cold acetone (5 min), acetone/chloroform (v/v) (5 min), and acetone (5 min) and washed with PBS. Immunohistochemical procedures were performed as described previously (Rak et al. 1996). Positive reaction was visualized by incubating the slides with stable 3,3′-diaminobenzidine (DAB) for 10–20 min or 3-amino-9-ethylcarbazole (AEC) after CD31 staining. The sections were rinsed with distilled water, counterstained with Gill's hematoxylin for 1 min, and mounted with Universal Mount (Research Genetics). […] Sections analyzed for activated EGF-R were pretreated with goat anti-mouse IgG F(ab)2 fragment (1:10 dilution in PBS) for 4–6 h before incubation with the primary antibody. The positive reaction following staining for activated EGF-R was enhanced with osmium tetraoxide (4% aqueous solution) at a 1:1000 dilution in ddH2O after incubation with DAB.
# Immunofluorescence Double Staining for CD31/PECAM-1 (Endothelial Cells) and TUNEL (Apoptotic Cells). Frozen tissues were sectioned (8–10 μm), mounted on positively charged slides, air-dried for 30 min, and fixed in cold acetone for 5 min, acetone+chloroform (1:1) for 5 min, and acetone for 5 min. Samples were washed 3 times with PBS, incubated with protein-blocking solution containing 5% normal horse serum and 1% normal goat serum in PBS for 20 min at room temperature, and incubated with the appropriate dilution (1:400) of rat monoclonal anti-mouse CD31 antibody (human cross-reactive) over 18 h at 4° C. After the samples were rinsed 4 times for 3 min each with PBS, the slides were incubated with the appropriate dilution (1:200) of secondary goat anti-rat conjugated to Texas Red for 1 h at room temperature in the dark. Samples were washed twice with PBS containing 0.1% Brij and washed with PBS for 5 min.
# TUNEL was performed using a commercially available apoptosis detection kit with the following modifications: samples were fixed with 4% paraformaldehyde (methanol-free) for 10 min at room temperature, washed twice with PBS for 5 min, and then incubated with 0.2% Triton X-100 for 15 min at room temperature. After two washes of 5 min each with PBS, the samples were incubated with equilibration buffer (from kit) for 10 min at room temperature. The equilibration buffer was drained, and reaction buffer containing equilibration buffer, nucleotide mix, and TdT enzyme was added to the tissue sections and incubated in a humid atmosphere at 37° C. for 1 h in the dark. The reaction was terminated by immersing the samples in 2×SSC for 15 min. Samples were washed 3 times for 5 min to remove unincorporated fluorescein-dUTP. For quantification of […], the samples were incubated with 300 μg/ml of Hoechst stain for 10 min at room temperature. Fluorescent bleaching was minimized by treating slides with an enhancing reagent (Prolong solution). […]
# [6] = molecular target: T1, EGF-R (Homo sapiens, UniProt P00533); assay: Western blot analysis of EGF-R autophosphorylation in L3.6pl cells; format: cell-based; details: concentration of 10 μM (data not shown)
# T1 construct: endogenous in cells; host or cells: L3.6pl human pancreatic cancer cells
# Method: Western Blot Analysis of EGF-R Autophosphorylation following Treatment with PKI166. […] without 40 ng/ml rhEGF for 10 min, washed, and scraped into PBS containing 5 mM EDTA and 1 mM Na Orthovanadate, and centrifuged, and the pellet resuspended in lysis buffer (20 mM Tris-HCl, pH 8.0, 137 mM NaCl, 10% glycerol, 2 mM EDTA, 1 mM phenylmethylsulfonyl fluoride, 20 μM leupeptin, and 0.15 U/ml aprotinin) sonicated, and centrifuged to recover […] protein. Immunoprecipitation was performed using Mab anti-EGF-R (clone EGF-RI) as described previously (Perrotte et al. 1999; Parker et al. 1998). Immunoprecipitates were analyzed on 7.5% NaDodSO4-PAGE and transferred onto 0.45-μm nitrocellulose membranes. The filters were blocked with 3% bovine serum albumin in TDS (20 mM Tris-HCl, pH 7.5, 150 mM NaCl), probed with either polyclonal sheep anti-human EGF-R (1:1000) or monoclonal anti-phosphotyrosine (Mab 4G10) (1:2000) in TTBS (0.1% Tween 20 in TBS), and incubated with horseradish peroxidase-conjugated donkey anti-sheep IgG (1:2000) (Sigma Immunochemicals, St. Louis, Mo.) or sheep anti-mouse IgG (1:2000), respectively, in TTBS. Protein bands were visualized by ECL detection system. For an additional experiment, serum-starved L3.6pl cells were treated with gemcitabine (10 nM) with or without PKI166 (0.05, 0.5 μM) for 1 h, and then incubated with or without rhEGF (40 ng/ml) for 10 min. […]
# [7] = test system: L3.6pl human pancreatic cancer cells
# Excerpt: Animals and Orthotopic Implantation of Tumor Cells. Male athymic nude mice (NCr-nu) were purchased from the Animal Production Area of the National Cancer Institute-Frederick Cancer Research and Development Center (Frederick, Md.). The mice were housed and maintained in laminar flow cabinets under specific pathogen-free conditions in facilities approved by the American Association for Accreditation of Laboratory Animal Care and in accordance with current regulations and standards of the U. S. Department of Agriculture, U.S. Department of Health and Human Services, and the National Institutes of Health. The mice were used in accordance with institutional guidelines when they were 8 to 12 wk old.
# Orthotopic Implantation of Tumor Cells. To produce tumors, L3.6pl cells were harvested from subconfluent cultures by a brief exposure to 0.25% trypsin and 0.02% EDTA. Trypsinization was stopped with medium containing 10% FBS, and the cells were washed once in serum-free medium and resuspended in HBSS. Only suspensions consisting of single cells with greater than 90% viability were used for the injections. Cells were injected into the pancreas as described previously. The mice were killed when moribund (5–6 wk). The size and weight of the primary pancreatic tumors, the incidence of regional (celiac and paraaortal) lymph node metastasis, and the number of liver metastases were recorded. Histopathology confirmed the nature of the disease.
# Therapy of Established Human Pancreatic Carcinoma Tumors Growing in the Pancreas of Athymic Nude Mice. Seven days after implantation of tumor cells into the pancreas, 5 mice were killed and the presence of tumor lesions was determined. At this time, the median tumor volume was 18 mm^3. Histological examination confirmed the lesions to be actively growing pancreatic cancer.
# Necropsy Procedures and Histological Studies. Mice were euthanized and the body weight was determined. Primary tumors in the pancreas were excised and weighed. […] Visible liver metastases were counted with the aid of a dissecting microscope and processed for H&E staining. All macroscopically enlarged regional (celiac and paraaortal) lymph nodes were harvested, and the presence of metastatic disease was confirmed by histology.
# [8] = mean ± SD absorbance, ratio of tumor cell to normal pancreatic gland expression ×100, day 35
# T1 sequence (P00533 25-1210): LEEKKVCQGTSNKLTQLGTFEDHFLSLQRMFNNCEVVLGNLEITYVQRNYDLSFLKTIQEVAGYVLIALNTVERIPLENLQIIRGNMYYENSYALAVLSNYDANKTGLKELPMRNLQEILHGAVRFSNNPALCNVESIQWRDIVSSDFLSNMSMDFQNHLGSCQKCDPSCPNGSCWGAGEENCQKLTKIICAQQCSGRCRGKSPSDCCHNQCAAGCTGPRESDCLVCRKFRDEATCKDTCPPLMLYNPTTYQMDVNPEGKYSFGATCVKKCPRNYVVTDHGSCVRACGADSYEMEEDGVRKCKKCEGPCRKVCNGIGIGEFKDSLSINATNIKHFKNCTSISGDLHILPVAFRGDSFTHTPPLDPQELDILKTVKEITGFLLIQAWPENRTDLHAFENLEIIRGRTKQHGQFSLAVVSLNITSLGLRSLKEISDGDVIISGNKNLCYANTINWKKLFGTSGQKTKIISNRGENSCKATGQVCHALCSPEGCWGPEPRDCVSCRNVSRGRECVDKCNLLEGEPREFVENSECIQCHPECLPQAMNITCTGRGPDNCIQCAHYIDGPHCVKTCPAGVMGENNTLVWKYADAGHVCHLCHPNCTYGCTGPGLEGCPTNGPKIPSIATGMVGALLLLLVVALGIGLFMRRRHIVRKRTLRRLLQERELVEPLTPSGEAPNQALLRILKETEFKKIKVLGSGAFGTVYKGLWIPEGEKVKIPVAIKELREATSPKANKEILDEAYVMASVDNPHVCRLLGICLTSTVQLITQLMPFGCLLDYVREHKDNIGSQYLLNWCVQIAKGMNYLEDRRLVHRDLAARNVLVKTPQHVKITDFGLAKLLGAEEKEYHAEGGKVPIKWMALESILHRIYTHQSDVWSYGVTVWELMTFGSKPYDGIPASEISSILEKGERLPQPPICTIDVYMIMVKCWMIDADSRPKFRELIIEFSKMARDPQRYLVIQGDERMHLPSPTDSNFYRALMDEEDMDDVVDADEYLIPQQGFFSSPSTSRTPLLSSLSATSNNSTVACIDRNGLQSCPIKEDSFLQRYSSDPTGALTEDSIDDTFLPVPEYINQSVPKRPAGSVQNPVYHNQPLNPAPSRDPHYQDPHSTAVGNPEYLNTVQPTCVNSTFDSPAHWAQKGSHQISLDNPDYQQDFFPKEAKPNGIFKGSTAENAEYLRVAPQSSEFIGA
smiles,measurement,setting,value
Nc1ccn([C@@H]2O[C@H](CO)[C@@H](O)C2(F)F)c(=O)n1 [gemcitabine],pIC50,[1]; gemcitabine alone,6.06
same,pIC50,[1]; in the presence of PKI166 (0.03 μM),6.28
same,VEGF in culture supernatant,[2],1280 pg/mL
same,Effect of increasing the dose on pancreatic tumor growth and metastasis,[3],did not further reduce
same,IL-8 in culture supernatant,[4],2000 pg/mL
same,ratio of PCNA-positive over TUNEL-positive cells,[5]; calculated,1.1
same,Staining of pancreatic tumors for activated (phosphorylated) EGF-R,[5]; immunohistochemistry of tumors from treated nude mice,stained positive
same,IL-8,[5]; [8],299 ± 43
same,VEGF,[5]; [8],298 ± 54
same,PCNA+ tumor cells,[5]; day 35,237±66 positive cells/field
same,TUNEL+ tumor cells,[5]; day 35,225±95 positive cells/field
same,PCNA+ tumor cells,"[5]; day 35, listed as Gemcitabine",237 ± 66 positive cells/field
same,TUNEL+ tumor cells,"[5]; day 35, listed as Gemcitabine",225 ± 95^e positive cells/field
same,"CD (CD31, tumor MVD per field)",[5]; day 35,52±18
same,"CD (CD31, tumor MVD per field)","[5]; day 35, listed as Gemcitabine",52
same,Effect on autophosphorylation of EGF-R,[6],did not affect
same,"Histologically positive regional lymph node metastases, share of animals",[7]; day 35,90%
same,Reduction of growth of primary pancreatic neoplasms,[7]; human pancreatic carcinoma in pancreas of nude mice,45%
